Experimental data taken from ChEMBL document CHEMBL5154930, “Design, Synthesis, and Biological Evaluations of DOT1L Peptide Mimetics Targeting the Protein-Protein Interactions between DOT1L and MLL-AF9/MLL-ENL” (J Med Chem, 2022).
pIC50, pKi: −log10 of the molar value. Non-standard residues stand in square brackets, D forms with d. Residues, ends and D or L forms follow the SMILES beside them. *: point of attachment. X6 = c1ccc(C[C@H](N*)c2nc3cccc(-c4ccccc4)c3[nH]2)cc1; X7 = CC[C@H](C)[C@H](N*)c1nc2cccc(-c3ccccc3)c2[nH]1; X3 = CC(C)C[C@H](N*)c1nc2cccc(-c3ccccc3)c2[nH]1; X5 = c1ccc(-c2cccc3nc([C@@H]4CCCN4*)[nH]c23)cc1; X4 = CC(C)[C@H](N*)c1nc2cccc(-c3ccccc3)c2[nH]1; X1 = C[C@H](N*)c1nc2cccc(-c3ccccc3)c2[nH]1; Ala(cPent) = N[C@@H](CC1CCCC1)C(=O)O; Pentanoyl(4-Me) = CC(C)CCC(=O)*; Dap(Me) = CNC[C@H](N)C(=O)O; Dap = NC[C@H](N)C(=O)O; Bz = O=C(c1ccccc1)*

Assays:
Protein AF-9 = biological target: T1, Protein AF-9 (Homo sapiens, UniProt P42568); assay: Binding affinity to MBP-tagged human recombinant AF9 (487 to 568 residues) incubated for 40 mins by measuring fluorescence polarization by microplate reader method
T1 sequence (P42568 whole entry): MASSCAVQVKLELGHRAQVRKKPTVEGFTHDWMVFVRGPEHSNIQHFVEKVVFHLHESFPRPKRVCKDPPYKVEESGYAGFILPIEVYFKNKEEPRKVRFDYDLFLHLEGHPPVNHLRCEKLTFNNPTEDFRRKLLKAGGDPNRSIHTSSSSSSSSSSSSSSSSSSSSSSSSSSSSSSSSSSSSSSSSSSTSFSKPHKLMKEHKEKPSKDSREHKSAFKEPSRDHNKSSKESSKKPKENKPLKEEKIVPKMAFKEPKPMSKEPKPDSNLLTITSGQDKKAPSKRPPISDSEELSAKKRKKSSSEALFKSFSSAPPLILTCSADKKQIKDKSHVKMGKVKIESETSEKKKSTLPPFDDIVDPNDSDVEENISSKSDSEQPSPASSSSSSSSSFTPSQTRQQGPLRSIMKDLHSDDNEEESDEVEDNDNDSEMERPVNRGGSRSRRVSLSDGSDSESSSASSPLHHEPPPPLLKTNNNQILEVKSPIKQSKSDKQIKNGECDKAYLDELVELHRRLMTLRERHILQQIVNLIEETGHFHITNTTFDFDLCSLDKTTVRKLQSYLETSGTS

KOPN-8 = assay: cells; conditions: Homo sapiens, KOPN-8, 192 h
Description: Anticancer activity against human KOPN-8 cells harbouring MLL-ENL assessed as inhibition of cell growth treated for 8 days measured by CCK-8 kit method

MOLM-13 [1] = assay: cells; conditions: Homo sapiens, MOLM-13, 192 h
Description: Anticancer activity against human MOLM-13 cells harbouring MLL-AF9 assessed as inhibition of cell growth treated for 8 days measured by CCK-8 kit method

MOLM-13 [2] = assay: cells; conditions: Homo sapiens, MOLM-13, 168 h
Description: Anticancer activity against human MOLM-13 cells harbouring MLL-AF9 assessed as inhibition of cell growth treated for 7 days measured by CCK-8 kit method

MOLM-13 [3] = assay: cells; conditions: Homo sapiens, MOLM-13, 144 h
Description: Anticancer activity against human MOLM-13 cells harbouring MLL-AF9 assessed as inhibition of cell growth treated for 6 days measured by CCK-8 kit method

[4] = Apparent permeability across apical to basolateral side in human Caco-2 cells; format: ADME, cell-based
MOLM-13 [5] = assay: cells; conditions: Homo sapiens, MOLM-13, 216 h
Description: Anticancer activity against human MOLM-13 cells harbouring MLL-AF9 assessed as inhibition of cell growth treated for 9 days measured by CCK-8 kit method

MOLM-13 [6] = assay: cells; conditions: Homo sapiens, MOLM-13, 96 h
Description: Anticancer activity against human MOLM-13 cells harbouring MLL-AF9 assessed as inhibition of cell growth treated for 4 days measured by CCK-8 kit method

MOLM-13 [7] = assay: cells; conditions: Homo sapiens, MOLM-13, 120 h
Description: Anticancer activity against human MOLM-13 cells harbouring MLL-AF9 assessed as inhibition of cell growth treated for 5 days measured by CCK-8 kit method

[8] = Stability in human plasma assessed as compound remaining measured upto 1440 mins by HPLC analysis; format: ADME, cell-free; conditions: read-out: Stability
MV4-11 = assay: Anticancer activity against human MV4-11 cells assessed as inhibition of cell growth treated for 8 days measured by CCK-8 kit method; format: functional, cell-based; conditions: MV4-11, 192 h
K562 = assay: Anticancer activity against human K562 cells assessed as inhibition of cell growth treated for 8 days measured by CCK-8 kit method; format: functional, cell-based; conditions: K562, 192 h
RS4-11 = assay: Anticancer activity against human RS4-11 cells assessed as inhibition of cell growth treated for 8 days measured by CCK-8 kit method; format: functional, cell-based; conditions: RS4-11, 192 h

SMILES | pKi (Protein AF-9) | pIC50 (KOPN-8) | pIC50 (MOLM-13 [1]) | other results
CC[C@@H](C)[C@H](NC(=O)[C@@H]1CCCN1C(=O)[C@H](CC(C)C)NC(C)=O)C(=O)N[C@@H](CO)C(=O)N[C@H](C(=O)N1CCC[C@H]1C(=O)N[C@@H](CC(C)C)C(=O)N(C)C)[C@@H](C)CC | 6.80 | – | – | –
CC[C@H](C)[C@H](NC(=O)[C@H](CO)NC(=O)[C@@H](NC(=O)[C@@H]1CCCN1C(=O)[C@H](CC(C)C)NC(C)=O)C(C)C)C(=O)N1CCC[C@H]1C(=O)N[C@@H](CC(C)C)C(=O)N(C)C (HELM PEPTIDE1{[ac].L.P.V.S.I.P.L.[CN(C)[*:1]]}$$$$V2.0) | 6.80 | – | – | –
CC(C)CCC(=O)N1CCC[C@H]1C(=O)N[C@H](C(=O)N[C@@H](CN)C(=O)N[C@@H](CC1CCCC1)C(=O)N[C@@H](C)c1nc2cccc(-c3ccccc3)c2[nH]1)C(C)C ({Pentanoyl(4-Me)}-PV[Dap][Ala(cPent)]-X1) | 8.05 | 6.72 | 6.82 | pIC50 (MOLM-13 [2]): 6.59; pIC50 (MOLM-13 [3]): 6.23; Papp A→B [4]: 1.82 ×10⁻⁶ cm/s; pIC50 (MOLM-13 [5]): 7.03; pIC50 (MOLM-13 [6]): 5.89; pIC50 (MOLM-13 [7]): 6.03; remaining at 24 h [8]: 83%; pIC50 (MV4-11): 6.85; pIC50 (K562): 4.48; pIC50 (RS4-11): 6.42
CC(C)(C)NCC(O)COc1cccc2c1CC(O)C(O)C2 (stereo not drawn) [NADOLOL] | – | – | – | Papp A→B [4]: 0.13 ×10⁻⁶ cm/s; remaining at 24 h [8]: 97.1%
CC(C)NCC(O)COc1cccc2ccccc12 (stereo not drawn) [PROPRANOLOL] | – | – | – | Papp A→B [4]: 18.5 ×10⁻⁶ cm/s; remaining at 24 h [8]: 72.9%

Continued, in another order:

pKi (Protein AF-9) | pIC50 (KOPN-8) | pIC50 (MOLM-13 [1]) | SMILES | other results
7.77 | 6.36 | 6.34 | CC(=O)N[C@@H](CC(C)C)C(=O)N1CCC[C@H]1C(=O)N[C@H](C(=O)N[C@@H](CN)C(=O)N[C@@H](CC1CCCC1)C(=O)N[C@@H](C)c1nc2cccc(-c3ccccc3)c2[nH]1)C(C)C (Ac-LPV[Dap][Ala(cPent)]-X1) | –
7.72 | 6.37 | 6.31 | CC(=O)N[C@@H](CC(C)C)C(=O)N1CCC[C@H]1C(=O)N[C@H](C(=O)N[C@@H](CN)C(=O)N[C@@H](CC1CCCC1)C(=O)N[C@@H](CC(C)C)c1nc2cccc(-c3ccccc3)c2[nH]1)C(C)C (Ac-LPV[Dap][Ala(cPent)]-X3) | –
7.54 | 6.12 | 6.19 | CC(=O)N[C@@H](CC(C)C)C(=O)N1CCC[C@H]1C(=O)N[C@H](C(=O)N[C@@H](CN)C(=O)N[C@@H](CC1CCCC1)C(=O)N[C@H](c1nc2cccc(-c3ccccc3)c2[nH]1)C(C)C)C(C)C (Ac-LPV[Dap][Ala(cPent)]-X4) | –
7.66 | 6.17 | 6.30 | CC(=O)N[C@@H](CC(C)C)C(=O)N1CCC[C@H]1C(=O)N[C@H](C(=O)N[C@@H](CN)C(=O)N[C@@H](CC1CCCC1)C(=O)N1CCC[C@H]1c1nc2cccc(-c3ccccc3)c2[nH]1)C(C)C (Ac-LPV[Dap][Ala(cPent)]-X5) | –
7.89 | 6.39 | 6.36 | CC(=O)N[C@@H](CC(C)C)C(=O)N1CCC[C@H]1C(=O)N[C@H](C(=O)N[C@@H](CN)C(=O)N[C@@H](CC1CCCC1)C(=O)N[C@@H](Cc1ccccc1)c1nc2cccc(-c3ccccc3)c2[nH]1)C(C)C (Ac-LPV[Dap][Ala(cPent)]-X6) | –
7.64 | 6.32 | 6.21 | CC[C@H](C)[C@H](NC(=O)[C@H](CC1CCCC1)NC(=O)[C@H](CN)NC(=O)[C@@H](NC(=O)[C@@H]1CCCN1C(=O)[C@H](CC(C)C)NC(C)=O)C(C)C)c1nc2cccc(-c3ccccc3)c2[nH]1 (Ac-LPV[Dap][Ala(cPent)]-X7) | –
7.49 | 6.17 | 6.13 | CNC[C@H](NC(=O)[C@@H](NC(=O)[C@@H]1CCCN1C(=O)c1ccccc1)C(C)C)C(=O)N[C@@H](CC1CCCC1)C(=O)N[C@@H](C)c1nc2cccc(-c3ccccc3)c2[nH]1 (Bz-PV[Dap(Me)][Ala(cPent)]-X1) | –
7.82 | 6.48 | 6.51 | CC(C)[C@H](NC(=O)[C@@H]1CCCN1C(=O)c1ccccc1)C(=O)N[C@@H](CN)C(=O)N[C@@H](CC1CCCC1)C(=O)N[C@@H](C)c1nc2cccc(-c3ccccc3)c2[nH]1 (Bz-PV[Dap][Ala(cPent)]-X1) | –
